Source: ChEMBL document CHEMBL4823249, “Discovery of a Pyrimidinedione Derivative as a Potent and Orally Bioavailable Axl Inhibitor” (J Med Chem, 2021)
Calls of active or inactive are those of the source. The calls are words filed in the database; no cut-off is given here.

Key:
[1] = Antiproliferative activity against human JHH7 cells incubated for 72 hrs by SRB or CCK8 assay; type: functional, cell-based; details: JHH7, 72 h
CDK4/Cyclin D3 = CDK4/Cyclin D3 (Homo sapiens, UniProt P11802); test: Inhibition of recombinant full length human CDK4/CyclinD3 using Rb fragment as substrate incubated for 40 mins in presence of [gamma-33ATP] by scintillation counting based radiometry assay; type: protein-complex assay
Chain of CDK4/Cyclin D3 (P11802 whole entry, the tested form may be a part): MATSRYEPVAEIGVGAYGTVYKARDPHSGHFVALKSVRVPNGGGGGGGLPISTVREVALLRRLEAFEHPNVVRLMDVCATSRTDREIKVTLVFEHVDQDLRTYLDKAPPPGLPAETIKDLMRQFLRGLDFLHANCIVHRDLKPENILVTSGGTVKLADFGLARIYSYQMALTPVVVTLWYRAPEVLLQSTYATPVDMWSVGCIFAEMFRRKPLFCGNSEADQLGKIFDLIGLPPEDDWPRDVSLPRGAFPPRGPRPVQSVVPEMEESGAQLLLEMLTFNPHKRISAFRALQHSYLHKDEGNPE
Chain of CDK4/Cyclin D3 (P30281 whole entry, further chain, the tested form may be a part): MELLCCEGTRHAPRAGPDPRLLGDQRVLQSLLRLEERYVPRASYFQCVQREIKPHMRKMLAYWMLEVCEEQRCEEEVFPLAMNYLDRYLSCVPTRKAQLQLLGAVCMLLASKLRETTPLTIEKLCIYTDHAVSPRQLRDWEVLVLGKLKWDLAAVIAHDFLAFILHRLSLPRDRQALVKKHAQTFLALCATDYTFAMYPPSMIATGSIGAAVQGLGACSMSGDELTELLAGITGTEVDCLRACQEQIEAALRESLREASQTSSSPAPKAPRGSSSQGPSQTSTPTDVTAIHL

BaF3 = test: Antitumor activity against mouse BaF3/TEL-AXL cells xenografted in BALB/c nude mouse assessed as tumor growth inhibition at 25 mg/kg, po administered once daily for 14 days by caliper method; type: functional; details: 336 h, time 14 day, read-out: TGI
CDK6/cyclin D3 = CDK6/cyclin D3 (Homo sapiens, UniProt Q00534); test: Inhibition of recombinant full length human CDK6/CyclinD3C using Rb fragment as substrate incubated for 40 mins in presence of [gamma-33ATP] by scintillation counting based radiometry assay; type: protein-complex assay
Chain of CDK6/cyclin D3 (P30281 whole entry, the tested form may be a part): as the sequence (P30281 whole entry, further chain, the tested form may be a part) above
Chain of CDK6/cyclin D3 (Q00534 whole entry, the tested form may be a part): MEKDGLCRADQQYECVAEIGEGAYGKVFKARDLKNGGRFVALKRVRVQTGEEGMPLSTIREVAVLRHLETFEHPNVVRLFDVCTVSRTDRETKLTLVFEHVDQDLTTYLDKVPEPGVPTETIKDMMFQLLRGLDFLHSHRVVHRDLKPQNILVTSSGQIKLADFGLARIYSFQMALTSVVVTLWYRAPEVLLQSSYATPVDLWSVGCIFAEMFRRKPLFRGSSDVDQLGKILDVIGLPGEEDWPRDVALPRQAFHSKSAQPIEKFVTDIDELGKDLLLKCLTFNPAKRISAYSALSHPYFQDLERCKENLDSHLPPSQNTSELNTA

SNU-449 = test: Inhibition of Gas6-stimulated cell invasion in human SNU-449 cells at […] after 24 hrs by crystal violet staining based microscopic analysis; type: functional; details: dose lower 5.0 µM
U-87 MG [2] = test: Antitumor activity against human U-87MG cells xenografted in BALB/c nude mouse assessed as tumor growth inhibition at 5 mg/kg, po administered once daily for 14 days by caliper method; type: functional, U-87MG ATCC; details: 336 h, time 14 day, read-out: TGI
BT-474 = test: Antiproliferative activity against human BT-474 cells incubated for 72 hrs by SRB or CCK8 assay; type: functional, cell-based; details: BT-474, 72 h
NCI-H1299 = test: Inhibition of Gas6-stimulated cell migration in human NCI-H1299 cells at […] after 24 hrs by crystal violet staining based microscopic analysis; type: functional; details: dose lower 5.0 µM
U-87 MG [3] = test: Antitumor activity against human U-87MG cells xenografted in BALB/c nude mouse assessed as tumor growth inhibition at 100 mg/kg, po administered once daily for 14 days by caliper method; type: functional, U-87MG ATCC; details: 336 h, time 14 day, read-out: TGI
[4] = AUC(0 to t) in Sprague-Dawley rat at 3 mg/kg, po measured upto 24 hrs by LC-MS analysis; type: ADME, organism-based; parameters: route oral, dose 3 mg/kg, time <=24; details: in vivo

IC50 (CDK4/Cyclin D3): > 1 µM | IC50 (CDK6/cyclin D3): > 1 µM | IC50 (BT-474): > 10 µM | AUC(0-t) at 24 h [4]: 32600 ng·h/mL
SMILES: CC(C)n1cc(C(=O)Nc2ccc(Oc3ccnc(NC(=O)C4CC4)c3)c(F)c2)c(=O)n(-c2ccc(F)cc2)c1=O
IC50 [1]: > 10 µM | inhibition in vivo at 25 mg/kg (BaF3): 106% | inhibition (SNU-449): Active | inhibition in vivo at 5 mg/kg (U-87 MG [2]): 62.3% | inhibition (NCI-H1299): Active | inhibition in vivo at 100 mg/kg (U-87 MG [3]): 99.1%
